# According to US20230150986A1, “ANTAGONISTS OF THE MUSCARINIC ACETYLCHOLINE RECEPTOR M4” (Vanderbilt University, priority 2019, published 2023):
# Target: T1, Human M4 (Homo sapiens, UniProt P08173)
# T1 construct: Human or rat M4 cDNA, along with the chimeric G protein Gq,5, were transfected into Chinese hamster ovary (CHO-K1) cells; expressed in transfected cells; host or cells: CHO-K1 (M4/Gqi5/CHO)
# T1 sequence (P08173 1-479): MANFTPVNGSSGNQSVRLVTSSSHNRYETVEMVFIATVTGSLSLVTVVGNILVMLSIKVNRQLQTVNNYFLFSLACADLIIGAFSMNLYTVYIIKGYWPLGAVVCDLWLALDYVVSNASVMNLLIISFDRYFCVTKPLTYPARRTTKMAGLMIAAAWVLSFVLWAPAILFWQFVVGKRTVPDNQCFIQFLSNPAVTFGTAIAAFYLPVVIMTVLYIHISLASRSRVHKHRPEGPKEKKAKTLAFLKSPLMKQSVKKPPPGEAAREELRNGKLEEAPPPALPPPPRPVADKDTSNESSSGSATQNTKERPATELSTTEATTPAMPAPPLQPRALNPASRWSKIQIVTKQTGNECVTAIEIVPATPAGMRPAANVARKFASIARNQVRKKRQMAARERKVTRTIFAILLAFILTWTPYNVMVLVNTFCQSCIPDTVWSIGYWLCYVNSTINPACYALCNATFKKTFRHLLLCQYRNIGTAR
# Assay: mAChR M4 cell-based functional assay (calcium flux, decrease of EC80 acetylcholine response)
# Details: for Human M4 Emin: % ACh maximum at 30 μM; for IC50: CHO-K1 cells with human M4 and Gqi5, EC80 acetylcholine
# Method: Human or rat M4 cDNA, along with the chimeric G protein Gq,5, were transfected into Chinese hamster ovary (CHO-K1) cells purchased from the American Type Culture Collection using Lipofectamine2000. M4/Gqi5/CHO cells were grown in Ham's F-12 medium containing 10% heat-inactivated fetal bovine serum (FBS), 20 mM HEPES, 500 μg/mL G^418 sulfate, and 200 μg/mL Hygromycin B.
# For high throughput measurement of agonist-evoked increases in intracellular calcium, CHO-K1 cells stably expressing muscarinic receptors were plated in growth medium lacking G418 and hygromycin at 15,000 cells/20 μL/well in Greiner 384-well black-walled, tissue culture (TC)-treated, clear-bottom plates (VWR). Cells were incubated overnight at 37° C. and 5% CO2. The next day, cells were washed using an ELX 405 (BioTek) with assay buffer; the final volume was then aspirated to 20 μL. Next, 20 μL of a 2.3 μM stock of Fluo-4/acetoxymethyl ester (Invitrogen, Carlsbad, Calif.), prepared as a 2.3 mM stock in DMSO and mixed in a 1:1 ratio with 10% (w/v) Pluronic F-127 and diluted in assay buffer, was added to the wells and the cell plates were incubated for 50 min at 37° C. and 5% CO2. Dye was removed by washing with the ELX 405 and the final volume was aspirated to 20 μL. Compound master plates were formatted in a 10 point concentration-response curve (CRC) format (1:3 dilutions) in 100% DMSO with a starting concentration of 10 or 1 mM using a BRAVO liquid handler (Agilent). Test compound CRCs were then transferred to daughter plates (240 nL) using the Echo acoustic plate reformatter (Labcyte, Sunnyvale, Calif.) and then diluted into assay buffer (40 μL) to a 2× stock using a Thermo Fisher Combi (Thermo Fisher Scientific, Waltham, Mass.).
# Calcium flux was measured using the Functional Drug Screening System (FDSS) 6000 or 7000 (Hamamatsu Corporation, Tokyo, Japan) as an increase in the fluorescent static ratio. Compounds were applied to cells (20 μL, 2×) using the automated system of the FDSS at 2 seconds into the protocol and the data were collected at 1 Hz. At 143 s, 10 μL of an EC20 concentration of the muscarinic receptor agonist acetylcholine was added (5×), followed by the addition of […] of an EC80 concentration of acetylcholine at the 268 s time point (5×). Agonist activity was analyzed as a concentration-dependent increase in calcium mobilization upon compound addition. Positive allosteric modulator activity was analyzed as a concentration-dependent increase in the EC2o acetylcholine response. Antagonist activity was analyzed as a concentration-dependent decrease in the EC80 acetylcholine response; for the purposes of the tables herein, an IC50 (inhibitory concentration 50) was calculated as a concentration-dependent decrease of the response elicited by an EC80 concentration of acetylcholine. Concentration-response curves were generated using a four-parameter logistical equation in XLFit curve fitting software (IDBS, Bridgewater, N.J.) for Excel (Microsoft, Redmond, Wash.) or Prism (GraphPad Software, Inc., San Diego, Calif.) or the Dotmatics software platform (Dotmatics, Bishop's Stortford, UK).
# Compounds were synthesized as described above. Activity (IC50 and Emin) was determined in the mAChR M4 cell-based functional assay as described above and the data are shown in Table 2.
SMILES,Human M4 Emin [%],IC50 [nM]
"CC(C1CCOCC1)N1C[C@H]2C[C@H](Nc3ccc(-c4cc(F)cc(F)c4F)nn3)C[C@H]2C1 (stereo partly drawn) [Compound 10, (3aR,5s,6aS)-2-(1-(tetrabydro-2H-pyran-4-yl)ethyl)-N-(6-(2,3,5-trifluorophenyl)pyridazin-3-yl)octahydrocyclopenta[c]pyrrol-5-amine]",4,5.7
"OC1(CN2C[C@H]3C[C@H](Nc4ccc(-c5cc(F)cc(F)c5F)nn4)C[C@H]3C2)CCCCC1 [Compound 9, 1-(((3aR,5s,6aS)-5-((6-(2,3,5-trifluorophenyl)pyridazin-3-yl)amino)hexahydrocyclopenta[c]pyrrol-2(1H)-yl)methyl)cyclohexan-1-ol]",3,6.09
"[2H]C([2H])(N1C[C@H]2C[C@H](Nc3ccc(-c4cc(F)cc(F)c4F)nn3)C[C@H]2C1)C1(C)CCCCO1 (stereo partly drawn) [Compound 50, (3aR,5s,6aS)-2-((2-methyltetrahydro-2H-pyran-2-yl)methyl-d2)-N-(6-(2,3,5-trifluorophenyl)pyridazin-3-yl)octahydrocyclopenta[c]pyrrol-5-amine]",2,6.89
"[2H]C([2H])(N1C[C@H]2C[C@H](Nc3ccc(-c4cc(F)cc(F)c4F)nn3)C[C@H]2C1)C1(OC)CCCOC1 (stereo partly drawn) [Compound 48, (3aR,5s,6aS)-2-((3-methoxytetrahydro-2H-pyran-3-yl)methyl-d2)-N-(6-(2,3,5-trifluorophenyl)pyridazin-3-yl)octahydrocyclopenta[c]pyrrol-5-amine]",2,184
"Fc1cc(F)c(F)c(-c2ccc(N[C@H]3C[C@@H]4CN(CC5CCCCO5)C[C@@H]4C3)nn2)c1 (single isomer, unassigned) [Compound 26]",3,1.24
"CC(C)(C)CCN1C[C@H]2C[C@H](Nc3ccc(-c4cc(F)cc(F)c4F)nn3)C[C@H]2C1 [Compound 51, (3aR,5s,6aS)-2-(3,3-dimethylbutyl)-N-(6-(2,3,5-trifluorophenyl)pyridazin-3-yl)octahydrocyclopenta[c]pyrrol-5-amine]",3,32
"Fc1cc(F)c(F)c(-c2ccc(N[C@H]3C[C@@H]4CN(C5CC6(COC6)C5)C[C@@H]4C3)nn2)c1 [Compound 35, (3aR,5s,6aS)-2-(2-oxaspiro[3.3]heptan-6-yl)-N-(6-(2,3,5-trifluorophenyl)pyridazin-3-yl)octahydrocyclopenta[c]pyrrol-5-amine]",3,798
"[2H]C([2H])(COCC)N1C[C@H]2C[C@H](Nc3ccc(-c4cc(F)cc(F)c4F)nn3)C[C@H]2C1 [Compound 79, (3aR,5s,6aS)-2-(2-ethoxyethyl-1,1-d2)-N-(6-(2,3,5-trifluorophenyl)pyridazin-3-yl)octahydrocyclopenta[c]pyrrol-5-amine]",5,120
"Fc1cc(F)c(F)c(-c2ccc(N[C@H]3C[C@@H]4CN(CC5CCSCC5)C[C@@H]4C3)nn2)c1 [Compound 67, (3aR,5s,6aS)-2-((tetrahydro-2H-thiopyran-4-yl)methyl)-N-(6-(2,3,5-trifluorophenyl)pyridazin-3-yl)octahydrocyclopenta[c]pyrrol-5-amine]",3,4
"Fc1cc(F)c(F)c(-c2ccc(N[C@H]3C[C@@H]4CN(Cc5ccc6c(c5)OC(F)(F)O6)C[C@@H]4C3)nn2)c1 [Compound 37, (3aR,5s,6aS)-2-((2,2-difluorobenzo[d][1,3]dioxol-5-yl)methyl)-N-(6-(2,3,5-trifluorophenyl)pyridazin-3-yl)octahydrocyclopenta[c]pyrrol-5-amine]",11,1010
